How the values were obtained:
bphA gene promoter = assay: bphA promoter-GFP fusions, benzoic acid-dependent GFP expression; format: cell-based, Aspergillus nidulans strain GR5; conditions: 8 mM benzoic acid, 5 hours; full promoter (1.8 kbp) and FR6 (0.4 kbp)
Protocol: In order to determine the minimal promoter length capable of retaining benzoic acid inducibility, promoter fusions to the Green Fluorescent Protein (GFP) gene were prepared. The full bphA promoter and shorter versions of it were PCR amplified using primers BPHPFwd (5′-[…]-3′, SEQ ID NO:19), BPHFR6 (5′-[…]-3′, SEQ ID NO:20), BPH331 (5′-[…]-3′, SEQ ID NO:21), and BPHPRev (5′-[…]-3′, SEQ ID NO:22). These primers introduced HindIII restriction sites (underlined) at both ends, which allowed cloning of the fragments upstream of the GFP gene contained within the pEBFP vector (Clontech, Palo Alto, Calif.).
The promoter-GFP fusions were called pBPH-1847-GFP, pBPH-531-GFP, and pBPH331-GFP, respectively. The selectable marker Pyr4 gene from Neurospora crassa, driven by its own promoter, was used to select putative A. nidulans transformed clones. The selectable marker was PCR-amplified from the pBS-Pyr4 vector using primers PyrEcoF (5′-[…]-3′, SEQ ID NO:23), and PyrEcoR (5′-[…]-3′, SEQ ID NO:24), which introduced EcoRI restriction sites (underlined) on both ends of the product. […]
Aspergillus nidulans GR5 protoplasts were prepared according to Aramayo and Timberlake ((1993) EMBO J. 12: 2039-2048), with some modifications. […] Concentration of protoplasts was determined using a hemacytometer, and adjusted to 10^8 protoplasts per mL. […]

BRE = assay: Activation of BRE fused to GFP in fungal protoplasts (surface receptor test); format: cell-based
Protocol: While not necessary to understand to practice the invention, a more complicated mechanism of induction may include a surface receptor that binds to benzoate and which then initiates either some kind of signal transduction cascade or the release of a TF that then culminates in the activation of the BPH promoter (FIGS. 12C and D). The hypothesis of a surface receptor was tested by using the p-NH2-benzoate coupled to agarose (as described above) as a non-cleavable external probe. Fungal protoplasts containing the BRE fused to GFP were then prepared, and activation of the BRE (production of the GFP marker) by addition of the agarose-immobilized benzoate derivative to the fungal protoplasts was scored. […] In order to investigate whether the disparity of size between the larger agarose beads and fungal protoplasts may have caused steric problems in binding of the inducer, smaller ligands still incapable of uptake are constructed and utilized to confirm a non-membrane surface location.
The hypothesis of a surface receptor was tested by using the p-NH2-benzoate coupled to agarose (as described above) as a non-cleavable external probe. Fungal protoplasts containing the BRE fused to GFP were then prepared, and activation of the BRE (production of the GFP marker) by addition of the agarose-immobilized benzoate derivative to the fungal protoplasts was scored. […]

Q: Which results are given for `O=C(O)c1ccccc1` [benzoic acid]?
A: GFP expression from bphA promoter-GFP fusions (bphA gene promoter): able to induce GFP expression only in the presence of the inducer; GFP fluorescence in the BRE-GFP transformed line (BRE): induced GFP fluorescence
